Measurements: patent US20250340519A1, “RADIOLABELLED COMPOUND” (OXFORD UNIVERSITY INNOVATION LIMITED, priority 2018, published 2025)
Several values for one entry are separate records, joined by “and”; a condition that tells them apart may be missing. Identical values can stand only once.

Legend:
Panc-1 xenograft = assay: Ex vivo biodistribution in Panc-1 xenograft bearing mice
Experimental: Animals were housed in IVC cages in sex-matched groups up to 5 per cage, in an artificial day-night cycle facility, with ad libitum access to food and water. […] CaNT xenografts were generated by harvesting CaNT tumours from donor animals, and injecting a tumour homogenate subcutaneously in the flank of wild type CBA/Carl mice. Tumours were irradiated (10 Gy, 2 Gy/min) using a 300 kV X-ray device.
Biodistribution studies, where selected tissues were harvested, were performed 1 h post injection. Some animals were also administered an excess of cold, unlabelled olaparib for evaluating the specificity of tumour uptake. EF5, a hypoxia-selective marker, was injected 2 h before culling of the animal. Digital autoradiography was performed on tumour sections. Image analysis was performed using PMOD.
Cells were harvested using trypsin, washed twice using PBS, and reconstituted in DMEM. […] Tumour volumes (V) were calculated after calliper measurement using the following equation: V=(a^2×b)/2, where a is the width of the tumour and b the length (small and large diameters, respectively). The individual relative tumour volume (RTV) was defined as Vt/Vo, where Vt is the volume at a given time and Vo at the start of treatment. Animals were entered in in vivo studies when their tumour was at least 200 mm^3.
Two hours prior to PET/CT imaging, animals were exposed to X-irradiation of the tumour (10 Gy or sham) (see schedule in FIG. 13). Radiation was delivered using a Gulmay 320 kV X-irradiator; 2.0 Gy/min. […] Naïve CBA/Carl mice, not bearing tumours, were not irradiated, nor was EF5 administered.
Dynamic PET/CT images were acquired using a VECTor ^4CT integrated PET/CT system. Mice were anaesthetised by 4% isoflurane gas (0.5 L/min O2) and placed on a custom-built imaging cradle in a prone position.
After PET/CT image acquisition, animals were euthanized by cervical dislocation and selected organs, tissues and blood were removed. […] Counts per minute were converted into MBq using a calibration curve generated from known standards. Values were decay-corrected to the time of injection, and the percentage of the injected dose per gram (% ID/g) of each tissue was calculated.

[1] = Dynamic PET blood clearance in naïve CBA/Carl mice; assay type: in vivo; conditions: i.v. 3 MBq
PANC-1 cells = assay: Cell uptake of [18F]olaparib in PANC-1 cells; assay type: cell-based, human; conditions: radiation dose-dependent
Experimental: PARP1 levels in a limited selection of PDAC cell lines were determined using Western blot and confirmed by immunofluorescence microscopy. […] Uptake was reported as a percentage of the total amount added, per mg of total protein recovered from the isolated cells, determined by BCA assay. Specificity of uptake was determined by blocking olaparib binding sites using an excess of cold, unlabeled olaparib, or other PARP inhibitors (rucaparib, talazoparib).
Cell uptake of ^18F-olaparib in Panc-1, MiaPaCa-2 and Capan-1 cells was determined as previously described (Cornelissen, B., Hu, M., McLarty, K., Costantini, D. & Reilly, R. M.
Cellular penetration and nuclear importation properties of 111In-labeled and 123I-labeled HIV-1 tat peptide immunoconjugates in BT-474 human breast cancer cells. Nucl Med Biol 34, 37-46, 2007; Thurber, G. M., Reiner, T., Yang, K. S., Kohler, R. H. & Weissleder, R. Effect of small-molecule modification on single-cell pharmacokinetics of PARP inhibitors. Molecular cancer therapeutics 13, 986-995, 2014; Reiner, T., et al. Imaging therapeutic PARP inhibition in vivo through bioorthogonally developed companion imaging agents. Neoplasia 14, 169-177, 2012). Aliquots of Panc-1, MiaPaca-2, and Capan-1 cells (1.5×10^5 cells/well) were seeded in 24-well plates in warm cell culture medium (500 μL) and the cells were allowed to adhere overnight. Cells were irradiated (10 Gy; dose rate 0.8 Gy/min) or sham-irradiated and then returned to an incubator (37° C., 5% CO2) for 2 h. […] In the blocking groups, non-radioactive olaparib, talazoparib, or rucaparib were also added in increasing concentrations (10 pM-10 μM. After 30 or 60 minutes, the cell culture medium was removed and combined with two washes (500 μL) of cell culture medium. The remaining monolayer of cells was then lysed with 0.1 M sodium hydroxide for 20 minutes at room temperature. The amount of radioactivity contained within the cell culture medium and the cell lysate fractions was measured using a gamma counter. Protein levels from parallel plates were quantified using a Pierce BCA protein assay kit (Thermo Scientific) according to the manufacturer's recommendations and bovine serum albumin was used as the protein standard. Cell uptake levels of [^18F]-olaparib were normalised to percent of the total added radioactivity per milligram protein. […] IC50 values were calculated using GraphPad Prism software (GraphPad Software, San Diego, CA, USA). […]
Aliquots of Panc-1, MiaPaca-2, and Capan-1 cells (7.5×10^4 cells/well) were seeded in 24-well plates in warm cell culture medium (500 μL). […] The amount of radioactivity contained within the cell culture medium and the cell lysate fractions was measured using a gamma counter. […]

- tumour uptake (group mean) (Panc-1 xenograft; PANC-1 xenografts, 1 h after i.v. bolus, tracer alone): 3.16±0.36 % ID/g
- increase of tumour uptake after irradiation (Panc-1 xenograft; PANC-1 xenografts, 2 h after 10 Gy vs non-irradiated): 70%
- tumour uptake (group mean) (Panc-1 xenograft; PANC-1 xenografts, 2 h after irradiation (10 Gy)): 5.35±1.16 % ID/g
- tumour uptake (group mean) (Panc-1 xenograft; PANC-1 xenografts, co-injection of excess cold olaparib): 1.20±0.17 % ID/g
- clearance pattern ([1]; dynamic PET): hepatobilliary
- weighted blood half-life [1]: 19.3 min
- blood clearance fast half-life ([1]; biphasic fit, fast phase (44%)): 2.8 min
- blood clearance slow half-life ([1]; biphasic fit, slow phase (56%)): 32.3 min
Structure (SMILES): O=C(c1cc(Cc2n[nH]c(=O)c3ccccc23)ccc1[18F])N1CCN(C(=O)C2CC2)CC1 [[^18F]olaparib]
- Ex vivo biodistribution Small intestine (Panc-1 xenograft; Panc-1 xenograft mice, + IR (10 Gy), 1 h p.i., individual animals): 65.1 % ID/g and 113 % ID/g and 95.2 % ID/g
- [^18F]olaparib uptake after gamma-irradiation (PANC-1 cells): increased
